Measurements from BigSolDB 2.1.

O=Cc1ccc([N+](=O)[O-])cc1
solubility (mole fraction)
Settings | 273.15 K | 278.15 K | 283.15 K | 288.15 K | 293.15 K | 298.15 K | 303.15 K | 308.15 K | 313.15 K
in 2-butanone | 0.0367 | 0.0459 | 0.0567 | 0.0689 | 0.0836 | 0.102 | 0.122 | 0.147 | 0.174
in DMF | 0.104 | 0.119 | 0.135 | 0.152 | 0.17 | 0.192 | 0.213 | 0.237 | 0.262
in acetone | 0.0389 | 0.051 | 0.0662 | 0.0851 | 0.107 | 0.134 | 0.166 | 0.202 | 0.244
in acetonitrile | 0.0262 | 0.0351 | 0.0471 | 0.0614 | 0.0801 | 0.102 | 0.13 | 0.161 | 0.199
in ethanol | 0.0151 | 0.0177 | 0.0199 | 0.0232 | 0.0265 | 0.031 | 0.0366 | 0.0422 | 0.0498
in ethyl acetate | 0.0321 | 0.0401 | 0.0488 | 0.0591 | 0.072 | 0.087 | 0.106 | 0.126 | 0.151
in isopropanol | 0.00326 | 0.00399 | 0.00451 | 0.005 | 0.00589 | 0.00703 | 0.00843 | 0.00929 | 0.0111
in methanol | 0.0263 | 0.0323 | 0.0398 | 0.0488 | 0.0596 | 0.0731 | 0.0884 | 0.108 | 0.13
in n-butanol | 0.0118 | 0.0128 | 0.0144 | 0.0161 | 0.018 | 0.02 | 0.0225 | – | 0.0283
in n-propanol | 0.014 | 0.0152 | 0.0168 | 0.019 | 0.0216 | 0.0243 | 0.0272 | 0.0312 | 0.0362
in toluene | 0.0191 | 0.0239 | 0.0297 | 0.0366 | 0.0449 | 0.0547 | 0.0657 | 0.0802 | 0.0969
